Reference: paper PMC6792352, “Limited Chemical Structural Diversity Found to Modulate Thyroid Hormone Receptor in the Tox21 Chemical Library” (Environmental Health Perspectives, 2019)
Where a name gives a salt, the structure may show the parent alone. Positions of bridges follow the written chain, without caps; N, C: chain ends. Non-standard residues stand in square brackets, D forms with d. Residues, ends and D or L forms follow the SMILES beside them. Orn = NCCC[C@H](N)C(=O)O; Mpa = O=C(O)CCS

Experiment: in vitro
Details: rat, gh3-tre-luc cells, AC50 (uM) modified / 1000

Compound | CC50 at 24 h [µM]
CCCCCN(C)CCC(O)(P(=O)(O)O)P(=O)(O)O [Ibandronate sodium] | > 50
COC1=C(OC)C(=O)C(CCCCCCCCCCO)=C(C)C1=O [Idebenone] | 35.2
CCCCCCCCCCN [1-Decanamine] | > 90
CC1(C)C(=O)NC(=O)N1CO [1-(Hydroxymethyl)-5,5-dimethylhydantoin] | > 90
COC(=O)c1ccccc1O [Methyl salicylate] | > 90
O=c1c(O)c(-c2ccc(O)c(O)c2)oc2cc(O)cc(O)c12 [Quercetin dihydrate] | 57
CC(C)(c1ccc(Oc2ccc3c(c2)C(=O)OC3=O)cc1)c1ccc(Oc2ccc3c(c2)C(=O)OC3=O)cc1 [2,2-Bis(4-(3,4-dicarboxyphenoxy)phenyl)propane dianhydride] | > 90
CCCCNC(=O)n1c(NC(=O)OC)nc2ccccc21 [Benomyl] | > 90
O=C(O)c1cc2ccccc2c(Cc2c(O)c(C(=O)O)cc3ccccc23)c1O [Pamoic acid] | > 50
CC1(C)CCC(NC(=O)[C@@H](N)CCC(=O)O)CC1 [Neboglamine] | > 50
OC[C@@H](O)[C@H](O)[C@@H](O)[C@@H](O)CO [L-Glucitol] | > 90
COc1cc(CC(C)N)c(OC)cc1Br (stereo not shown) [4-Bromo-2,5-dimethoxyamphetamine hydrochloride] | 40.8
CC(C)Nc1ccccc1 [N-Isopropylaniline] | > 90
O=C(O)C1C(C(=O)O)[C@@]2(Cl)C(Cl)=C(Cl)[C@]1(Cl)C2(Cl)Cl (stereo partly shown) [Chlorendic acid] | > 90
O=[N+]([O-])c1ccc(F)c(Cl)c1 [2-Chloro-1-fluoro-4-nitrobenzene] | > 90
CN1CCN(CC(=O)N2c3ccccc3C(=O)Nc3cccnc32)CC1 [Pirenzepine] | > 50
COC(=O)[C@@H](N)Cc1ccc(O)c(O)c1 [Methyl L-DOPA hydrochloride] | 19.9
OCC(O)COc1ccc(Cl)cc1 (stereo not shown) [Chlorphenesin] | > 50
Cn1cc(C2=C(c3cn(C4CCN(Cc5ccccn5)CC4)c4ccccc34)C(=O)NC2=O)c2ccccc21 [Enzastaurin] | > 50
Cc1ccccc1S [2-Methylbenzenethiol] | > 70
CCOc1ccc(NC(C)=O)cc1N [3-Amino-4-ethoxyacetanilide] | > 90
CCCCCCCCC [Nonane] | > 90
O=C(CN1CCNCC1)NC1CCCCC1 [Esaprazole] | > 50
O=P(O)(O)C(Sc1ccc(Cl)cc1)P(=O)(O)O [Tiludronate disodium] | > 50
CC(C)(C)OC(=O)N1C[C@@H](F)C[C@H]1C(=O)O [1,2-Pyrrolidinedicarboxylicacid,4-fluoro-,1-(1,1-dimethylethyl)ester,(2S,4S)-] | > 90
C/C(=N\O)c1ccc(OCC(=O)N2CCCCC2)cc1 [Pifoxime] | > 50

Compound | CC50 at 24 h [µM]
COC(=O)CC[C@H](N)C(=O)O [(5)-Methyl L-glutamate] | > 50
CCN1CCCC(OC(=O)C(c2ccccc2)c2ccccc2)C1 (stereo not shown) [Piperidolate hydrochloride] | 11.6
CN1CCC(OC(=O)C(Oc2ccc(Cl)cc2)Oc2ccc(Cl)cc2)CC1 [Lifibrate] | 27.6
CCC(C)(C)c1ccc(O)cc1 [4-(2-Methylbutan-2-yl)phenol] | > 90
NC(=O)[C@@H]1CCCN1C(=O)[C@H](Cc1cnc[nH]1)NC(=O)[C@@H]1CCC(=O)N1 [Protirelin] | > 50
CC(=O)CCC(C)C [5-Methyl-2-hexanone] | > 90
O=[N+]([O-])c1cccc(I)c1 [1-Iodo-3-nitrobenzene] | > 90
COc1ccc(/C=C/C(=O)OCCC(C)C)cc1 [Amiloxate] | > 50
CC(C)OC(=O)CCCCC(=O)OC(C)C [Diisopropyl adipate] | > 90
N[C@@H]1[C@H]2CN(c3nc4c(cc3F)c(=O)c(C(=O)O)cn4-c3ccc(F)cc3F)C[C@@H]12 [Trovafloxacin mesylate] | 20.9
CN1C(=O)CC(C)(c2ccccc2)C1=O (stereo not shown) [Methsuximide] | > 50
C=C(C)C(=O)OCC [Ethyl methacrylate] | > 100
CN(C)c1ccc(C=O)cc1 [4-Dimethylaminobenzaldehyde] | > 90
O=C(N[C@H]1CN2CCC1CC2)c1cc2ccoc2cn1 [PHA-00543613] | > 90
C=C(C)C(=O)OC(C)CO (stereo not shown) [Hydroxypropyl methacrylate] | > 90
CC1(C)CCC[C@]2(C)[C@H]3CC(=O)O[C@]3(C)CC[C@@H]12 [(3aR)-(+)-Sclareolide] | 64.9
O=S(=O)(O)c1ccc(N=Nc2c(O)ccc3ccccc23)cc1 [C.I. Acid Orange 7] | 44.3
COCCOC[C@H](CC1(C(=O)N[C@H]2CC[C@@H](C(=O)O)CC2)CCCC1)C(=O)Oc1ccc2c(c1)CCC2 [Candoxatril] | > 90
CCCc1nn(C)c2c(=O)[nH]c(-c3cc(S(=O)(=O)N4CCN(C)CC4)ccc3OCC)nc12 [Sildenafil citrate] | > 50
CC(=O)OCC(=O)[C@@]1(O)CC[C@H]2[C@@H]3CCC4=CC(=O)C=C[C@]4(C)[C@H]3[C@@H](O)C[C@@]21C [Prednisolone acetate] | > 50
CCOc1ccc(C[C@H]2NC(=O)CCSSC[C@@H](C(=O)N3CCC[C@H]3C(=O)N[C@@H](CCCN)C(=O)NCC(N)=O)NC(=O)[C@H](CC(N)=O)NC(=O)[C@H]([C@@H](C)O)NC(=O)[C@H]([C@@H](C)CC)NC2=O)cc1 [Atosiban] ([Mpa][dY](Et)ITNCP[Orn]G-NH2; disulfide 1-6) | > 50
CNc1cc(OC)c(C(=O)N[C@@H]2CCN(Cc3ccccc3)[C@@H]2C)cc1Cl (racemic) [Nemonapride] | > 50
CCCCOCCOC(=O)COc1cc(Cl)c(Cl)cc1Cl [2,4,5-T-butotyl] | > 90
O=c1[nH]ncc2ccccc12 [1(2H)-Phthalazinone] | > 90
C=CC(=C)CCCC(C)(C)OC(C)=O [2-methyl-6-methylideneoct-7-en-2-yl acetate] | > 90
CCCCCCCCCCCCCCCS(=O)(=O)Oc1ccccc1 [C10-21 alkanesulfonic acids phenyl esters] | > 50

Compound | CC50 at 24 h [µM]
CCc1cccc2c3c([nH]c12)C(CC)(CC(=O)O)OCC3 (stereo not shown) [Etodolac] | > 90
CCC/C(=N\OCC)C1=C(O)CC(CC(C)SCC)CC1=O (stereo not shown) [Sethoxydim] | > 90
NNc1nnc(Cc2ccncc2)c2ccccc12 [Picodralazine] | > 50
COc1cc(C)c(/C=C/C(C)=C/C=C/C(C)=C/C(=O)O)c(C)c1C [Acitretin] | > 50
CC[C@H]1OC(=O)[C@H](C)[C@@H](O[C@H]2C[C@@](C)(OC)[C@@H](O)[C@H](C)O2)[C@H](C)[C@@H](O[C@@H]2O[C@H](C)C[C@H](N(C)C)[C@H]2O)[C@](C)(O)C[C@@H](C)[C@@H]2N[C@@H](COCCOC)O[C@H]([C@H]2C)[C@]1(C)O [Dirithromycin] | > 50
C=CCc1cc(S(=O)(=O)c2ccc(O)c(CC=C)c2)ccc1O [4,4'-Sulfonylbis[2-(prop-2-en-1-yl)phenol]] | 49.1
Cc1cc(=O)oc2cc(O)cc(O)c12 [5,7-Dihydroxy-4-methylcoumarin] | > 90
Cc1cc2c(cc1S(N)(=O)=O)S(=O)(=O)CCC2 [Meticrane] | > 20
CNCCC(Oc1ccc(C(F)(F)F)cc1)c1ccccc1 (stereo not shown) [Fluoxetine hydrochloride] | 10.3
O=C(O)COc1ccc(C(=O)c2cccs2)c(Cl)c1Cl [Ticrynafen] | > 50
COC(=O)C1=C(C)NC(C)=C(C(=O)OC(C)C)C1c1cccc2nonc12 (stereo not shown) [Isradipine] | > 20
CCCCCC(N)=O [Hexanamide] | > 90
O=NN1CCN(N=O)CC1 [Dinitrosopiperazine] | > 90
CCN(CC)CCC(=O)N1c2ccccc2Sc2ccc(C(F)(F)F)cc21 [Fluacizine] | 20.5
Clc1ccc(Cl)c(Cl)c1Cl [1,2,3,4-Tetrachlorobenzene] | > 90
CCCCC1C(=O)N(c2ccccc2)N(c2ccc(O)cc2)C1=O (stereo not shown) [Oxyphenbutazone] | 3.72
NC(=O)CCCCC(N)=O [Adipamide] | > 90
Nc1ccccc1S(=O)(=O)O [Orthanilic acid] | > 90
Oc1ccccc1Cc1ccccc1O [2,2'-Bisphenol F] | > 90
C[CH2][Ge]([Cl])([CH2]C)[CH2]C [Triethylgermanium chloride] | > 90
O=S(=O)(Oc1ccc(Cl)cc1)c1ccc(Cl)cc1 [Chlorfenson] | > 90
CC1(C)S[C@@H]2[C@H](NC(=O)C3(N)CCCCC3)C(=O)N2[C@H]1C(=O)O [Cyclacillin] | > 50
CC(=O)NCCCS(=O)(=O)O [Acamprosate calcium] | > 40
CCCCCCCCCCCCCCCCCC(=O)OCC(C)O (stereo not shown) [Octadecanoic acid, monoester with 1,2-propanediol] | 20.7
Cc1ccc2c(c1)c1c3n2CCNC3CCC1 (stereo not shown) [Pirlindole mesylate] | 9.12
C/C(=C(\CCOC(=O)c1ccccc1)SS/C(CCOC(=O)c1ccccc1)=C(/C)N(C=O)Cc1cnc(C)nc1N)N(C=O)Cc1cnc(C)nc1N [Bisbentiamine] | 25.6

Same assay, conditions: rat, gh3-tre-luc cells, AC50 (uM) modified / 1000, Tox21_110001=Tox21_111794; viability, 1 nM T3 present, 24 h

Compound | CC50 at 24 h [µM]
CC(Cc1ccccc1)NC=O (stereo not shown) [Formetorex] | > 50

Same assay, conditions: rat, gh3-tre-luc cells, AC50 (uM) modified / 1000, Tox21_110001=Tox21_111921; viability, 1 nM T3 present, 24 h

Compound | CC50 at 24 h [µM]
CCCC(C)(COC(N)=O)COC(=O)NC1CC1 (stereo not shown) [Lorbamate] | > 50

Same assay, conditions: rat, gh3-tre-luc cells, AC50 (uM) modified / 1000, Tox21_110001=Tox21_112831; viability, 1 nM T3 present, 24 h

Compound | CC50 at 24 h [µM]
CC[C@H](OC(C)=O)C(C[C@H](C)NC)(c1ccccc1)c1ccccc1 [L-alpha-Acetyl-N-normethadol hydrochloride] | 17.4

Same assay, conditions: rat, gh3-tre-luc cells, AC50 (uM) modified / 1000, Tox21_110001=Tox21_302181; viability, 1 nM T3 present, 24 h

Compound | CC50 at 24 h [µM]
OCCSSCCO [2-Hydroxyethyl disulfide] | > 90
